According to PubChem BioAssay (NCI):
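48-hour exposure; five concentrations; linearly interpolated endpoints. GI50 is the concentration that inhibits growth by half. TGI: concentration producing complete growth inhibition.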

What was measured:
Test in all cases: inhibition of tumour cell growth, NCI panel, 48 h
[1] = system: 786-0 renal
[2] = system: A498 renal
[3] = system: A549 NSCLC
[4] = system: ACHN renal
[5] = system: BT-549 breast
[6] = system: CAKI-1 renal
[7] = system: CCRF-CEM leukemia
[8] = system: COLO 205 colon
[9] = system: DU-145 prostate
[10] = system: HCC-2998 colon
[11] = system: HCT-116 colon
[12] = system: HCT-15 colon
[13] = system: HL-60(TB) leukemia
[14] = system: HOP-62 NSCLC
[15] = system: HOP-92 NSCLC
[16] = system: HS 578T breast
[17] = system: HT29 colon
[18] = system: IGROV1 ovarian
[19] = system: K-562 leukemia
[20] = system: KM12 colon
[21] = system: LOX IMVI melanoma
[22] = system: M14 melanoma
[23] = system: MALME-3M melanoma
[24] = system: MCF7 breast
[25] = system: MDA-MB-231 breast
[26] = system: MDA-MB-435
[27] = system: MOLT-4 leukemia
[28] = system: NCI-H226 lung
[29] = system: NCI-H23 lung
[30] = system: NCI-H460 lung
[31] = system: NCI-H522 lung
[32] = system: NCI/ADR-RES ovarian
[33] = system: OVCAR-3 ovarian
[34] = system: OVCAR-4 ovarian
[35] = system: OVCAR-5 ovarian
[36] = system: OVCAR-8 ovarian
[37] = system: PC-3 prostate
[38] = system: RPMI-8226 leukemia
[39] = system: RXF 393 renal
[40] = system: SF-268 CNS
[41] = system: SF-295 CNS
[42] = system: SF-539 CNS
[43] = system: SK-MEL-2 melanoma
[44] = system: SK-MEL-28 melanoma
[45] = system: SK-MEL-5 melanoma
[46] = system: SK-OV-3 ovarian
[47] = system: SN12C renal
[48] = system: SNB-19 CNS
[49] = system: SNB-75 CNS
[50] = system: SR leukemia
[51] = system: SW-620 colon
[52] = system: T-47D breast
[53] = system: TK-10 renal
[54] = system: U251 CNS
[55] = system: UACC-257 melanoma
[56] = system: UACC-62 melanoma
[57] = system: UO-31 renal

COc1ccc(C2=C(c3cn(C)c4ccccc34)C(=O)NC2=O)cc1
GI50 [1]: > 25 µM | TGI [1]: > 25 µM | GI50 [2]: 6.74 µM | TGI [2]: > 25 µM | GI50 [3]: 14.1 µM | TGI [3]: > 25 µM | GI50 [4]: > 25 µM | TGI [4]: > 25 µM | GI50 [5]: > 25 µM | TGI [5]: > 25 µM | GI50 [6]: > 22.3 µM | TGI [6]: > 25 µM | GI50 [7]: 16.3 µM | TGI [7]: > 25 µM | GI50 [8]: 10.7 µM | TGI [8]: > 25 µM | GI50 [9]: > 25 µM | TGI [9]: > 25 µM | GI50 [10]: > 23.1 µM | TGI [10]: > 25 µM | GI50 [11]: 12.7 µM | TGI [11]: > 25 µM | GI50 [12]: 6.05 µM | TGI [12]: > 25 µM | GI50 [13]: 14.5 µM | TGI [13]: > 25 µM | GI50 [14]: > 23.1 µM | TGI [14]: > 25 µM | GI50 [15]: > 14.5 µM | TGI [15]: > 25 µM | GI50 [16]: 9.65 µM | TGI [16]: > 25 µM | GI50 [17]: 9.43 µM | TGI [17]: > 25 µM | GI50 [18]: > 25 µM | TGI [18]: > 25 µM | GI50 [19]: 3.89 µM | TGI [19]: > 25 µM | GI50 [20]: 8 µM | TGI [20]: > 25 µM | GI50 [21]: 24.9 µM | TGI [21]: > 25 µM | GI50 [22]: 19.4 µM | TGI [22]: > 25 µM | GI50 [23]: > 25 µM | TGI [23]: > 25 µM | GI50 [24]: 8.03 µM | TGI [24]: > 25 µM | GI50 [25]: > 25 µM | TGI [25]: > 25 µM | GI50 [26]: 1.56 µM | TGI [26]: > 14.7 µM | GI50 [27]: 15.5 µM | TGI [27]: > 25 µM | GI50 [28]: > 22.3 µM | TGI [28]: > 25 µM | GI50 [29]: > 25 µM | TGI [29]: > 25 µM | GI50 [30]: 11.1 µM | TGI [30]: > 25 µM | GI50 [31]: > 12.3 µM | TGI [31]: > 25 µM | GI50 [32]: > 17.3 µM | TGI [32]: > 25 µM | GI50 [33]: 17 µM | TGI [33]: > 25 µM | GI50 [34]: > 14.6 µM | TGI [34]: > 25 µM | GI50 [35]: > 25 µM | TGI [35]: > 25 µM | GI50 [36]: > 25 µM | TGI [36]: > 25 µM | GI50 [37]: > 21.9 µM | TGI [37]: > 25 µM | GI50 [38]: > 20.3 µM | TGI [38]: > 25 µM | GI50 [39]: 10.6 µM | TGI [39]: > 25 µM | GI50 [40]: > 20.9 µM | TGI [40]: > 25 µM | GI50 [41]: > 17 µM | TGI [41]: > 25 µM | GI50 [42]: 9.76 µM | TGI [42]: > 25 µM | GI50 [43]: 14.2 µM | TGI [43]: > 25 µM | GI50 [44]: > 23 µM | TGI [44]: > 25 µM | GI50 [45]: > 18.4 µM | TGI [45]: > 25 µM | GI50 [46]: 24.3 µM | TGI [46]: > 25 µM | GI50 [47]: 24.5 µM | TGI [47]: > 25 µM | GI50 [48]: > 25 µM | TGI [48]: > 25 µM | GI50 [49]: 1.97 µM | TGI [49]: > 25 µM | GI50 [50]: 6.14 µM | TGI [50]: > 25 µM | GI50 [51]: 8.95 µM | TGI [51]: > 25 µM | GI50 [52]: > 24.1 µM | TGI [52]: > 25 µM | GI50 [53]: > 21 µM | TGI [53]: > 25 µM | GI50 [54]: > 23.6 µM | TGI [54]: > 25 µM | GI50 [55]: > 25 µM | TGI [55]: > 25 µM | GI50 [56]: 13 µM | TGI [56]: > 25 µM | GI50 [57]: > 23.7 µM | TGI [57]: > 25 µM
